Results as given in patent publication US6750177B2, “Herbicide combination with acylated aminophenylsulfonylureas” (priority 2002, dated 2004).
Where two headings read alike, the source gives them in different places.

Key:
Format in all cases: in vivo
Polygonum convolvulus = assay: Herbicidal action (field trials), Polygonum convolvulus; settings: Fallopia convolvulus, field trial
Method: (§1) The seeds or rhizome pieces of typical harmful plants were planted and grown under natural field conditions. Before the harmful plants had emerged or after the harmful plants had emerged, they were treated, as a rule at the 2- to 8-leaf stage, with various dosages of the compositions according to the invention at a water application rate of 100 to 400 I/ha (converted).
(§2) After the treatment (approx. 4-6 weeks after application), the herbidical activity of the active ingredients or active ingredient mixtures was scored visually by comparing the treated plots with the untreated control plots. Damage and development of all aerial parts of the plants was recorded. Scoring was done on a percentage scale (100% action=all plants dead; 50% action=50% of the plants and green plant parts dead; 0% action=no discernible action=like control plot). The score figures of in each case 4 plots was averaged.
(§3) The results are shown in the tables which follow, the action when using active ingredients (A+B) and (C) independently being stated in brackets.

Maize = test system: Maize
Method: as §1, §2, §3

Setaria spp. = assay: Herbicidal action (field trials), Setaria spp.; settings: field trial
Method: as §1, §2, §3

Sorghum verticillata = assay: Herbicidal action (field trials), Sorghum verticillata; settings: 60 g As/ha, field trial
Method: as §1, §2, §3

Structure (SMILES): N#Cc1cc(Br)c(O)c(Br)c1 [bromoxynil (C33), 3,5-dibromo-4-hydroxybenzonitrile]
- inhibition at 240 g/ha (Polygonum convolvulus; 240 g As/ha): 40%
- Maize % damage (Maize; 240 g As/ha, field trial (table part with Polygonum convolvulus)): 2%

Structure (SMILES): COc1c(Cl)ccc(Cl)c1C(=O)O [dicamba (C20), 3,6-dichloro-o-anisic acid]
- inhibition at 60 g/ha (Polygonum convolvulus; 60 g As/ha): 35%
- Maize % damage (Maize; 60 g As/ha, field trial (table part with Polygonum convolvulus)): 0%

Structure (SMILES): COc1cc(OC)nc(NC(=O)NS(=O)(=O)c2c(C(=O)O)c(Cl)nn2C)n1 [halosulfuron (C40), 3-chloro-5-(4,6-dimethoxypyrimidin-2-ylcarbamoylsulfamoyl)-1-methylpyrazole-4-carboxylic acid]
- inhibition at 36 g/ha (Setaria spp.; 36 g As/ha): 0%
- Maize % damage (Maize; 36 g As/ha, field trial (table part with Setaria spp.)): 3%

Structure (SMILES): COc1cc(OC)nc(NC(=O)NS(=O)(=O)c2ncccc2C(=O)N(C)C)n1 [nicosulfuron (C15), 2-(4,6-dimethoxypyrimidin-2-yl)-3-(3-dimethylcarbamoyl-2-pyridylsulfonyl)urea]
- inhibition at 60 g/ha (Sorghum verticillata): 74%
- Maize % damage (Maize; 60 g As/ha, field trial (table part with Sorghum verticillata)): 0%

Structure (SMILES): COc1nc(C)nc(NC(=O)NS(=O)(=O)c2ccccc2CCC(F)(F)F)n1 [prosulfuron (C42), 1-(4-methoxy-6-methyl-1,3,5-triazin-2-yl)-3-[2-(3,3,3-trifluoropropyl)phenylsulfonyl]urea]
- inhibition at 40 g/ha (Setaria spp.; 40 g As/ha): 15%
- Maize % damage (Maize; 40 g As/ha, field trial (table part with Setaria spp.)): 7%
